According to ChEMBL document CHEMBL1201862, “PubChem BioAssay data set” (2004):
The source made the active and inactive calls. How the calls were made is not given here.

Tests used:
[1] = biological target: T1, High affinity choline transporter 1 (Homo sapiens, UniProt Q9GZV3); experiment: CHT inhibitors, dose response, cell-based, 5-point CRC, membrane potential dye (AID 504840); format: functional
T1 sequence (Q9GZV3 whole entry): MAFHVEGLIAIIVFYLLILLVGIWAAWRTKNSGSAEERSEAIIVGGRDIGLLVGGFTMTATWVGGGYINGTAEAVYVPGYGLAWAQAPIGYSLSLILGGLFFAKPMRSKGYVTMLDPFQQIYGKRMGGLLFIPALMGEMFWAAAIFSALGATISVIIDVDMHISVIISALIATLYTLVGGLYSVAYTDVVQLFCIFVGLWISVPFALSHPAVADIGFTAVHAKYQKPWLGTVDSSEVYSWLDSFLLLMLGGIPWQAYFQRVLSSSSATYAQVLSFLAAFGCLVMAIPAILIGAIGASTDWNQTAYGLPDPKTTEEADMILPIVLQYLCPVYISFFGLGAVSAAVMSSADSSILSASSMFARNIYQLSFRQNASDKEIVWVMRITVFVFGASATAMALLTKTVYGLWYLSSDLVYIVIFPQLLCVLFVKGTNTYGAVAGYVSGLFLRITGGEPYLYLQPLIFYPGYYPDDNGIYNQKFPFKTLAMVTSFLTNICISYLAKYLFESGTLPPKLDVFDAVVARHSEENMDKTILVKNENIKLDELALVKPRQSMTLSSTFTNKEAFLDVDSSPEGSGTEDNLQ

[2] = biological target: T1, High affinity choline transporter 1; experiment: CHT inhibitors, dose response, cell-based, 10-point CRC, membrane potential dye (AID 588401); format: functional;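 further: membrane potential dye fluorescence of choline-evoked depolarization via CHT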

- IC50 [1]: 2460 nM (active)
- IC50 [2]: 1190 nM (active)
Compound: CCCCN(CCCC)CCCNC(=O)C12CN(Cc3ccccc3)CC1C(c1cccc([N+](=O)[O-])c1)=NO2 (configuration not stated)
